Columns and labels:
[1] = Absorbance and emission maxima of near IR fluorescent probes (Table 1); format: physicochemical
[2] = tested on: eHsp90; test: Competition of fluorescent probe binding to eHsp90 on cells by untethered Hsp90 inhibitors; format: cell-based; conditions: for blocking of binding of 100 and HS-27 to eHsp90: untethered Hsp90 inhibitors
Description: Cells were plated on uncoated 18-mm round coverslips in 12 well plates at 150,000 cells/well and were allowed to adhere overnight. 100, in a stock solution in DMSO, was diluted in serum-free/phenol red-free DMEM. […] The coverslips were washed and mounted onto microscope slides using FluorSave mounting reagent (Millipore, Darmstadt, Germany). Slides were imaged on a Leica SP5 confocal microscope.
(§1) Images were analyzed for fluorescence and puncta using ImageJ software using a non-biased, high-throughput macro. In brief, cells were selected using an expanded selection from the DAPI channel. The regions of interest were then masked, a watershed filter was applied to split adjacent cells into separate cells, and the regions of interest were applied to the 100 channel to measure fluorescence and puncta. High resolution confocal stacks were deconvolved with Hyugen's Deconvolution Software or AiryScan.
(§2) To analyze the internalization of eHsp90 in transformed cells, the 4T1 cell model was utilized.

[3] = tested on: MDA-MB-468 cells; test: 100 internalization assay in MDA-MB-468 cells; format: cell-based
Description: Cells were plated on uncoated 18-mm round coverslips in 12 well plates at 150,000 cells/well and were allowed to adhere overnight. 100, in a stock solution in DMSO, was diluted in serum-free/phenol red-free DMEM. After drug incubation, the cells were washed twice with ice-cold PBS, fixed with 1% PFA in PBS for 10 min, and stained with 5 μg/mL wheat germ agglutinin-488 (WGA-488, Invitrogen, Waltham, Mass.) and either Hoescht or DAPI. The coverslips were washed and mounted onto microscope slides using FluorSave mounting reagent (Millipore, Darmstadt, Germany). Slides were imaged on a Leica SP5 confocal microscope.
as §1, §2

[4] = tested on: MDA-MB-468 flank tumors; test: Whole mouse 3D cryo-imaging of probe biodistribution, MDA-MB-468 flank xenograft; format: in vivo
Description: All protocols involving the use of mice were approved beforehand by the IACUC at Duke University and were strictly adhered to throughout the studies. A wild-type 3-month-old male SCID mouse with a right flank xenograft with MDA-MB-468 cells was injected with 25 nmol 100 through the tail vein. Six hours later, the mouse was euthanized, prepared according to the instructions from BioInVision, Inc. (Cleveland, Ohio, USA) and shipped for Cryo-Imaging and reconstruction. An EGFP/mCherry dual band filter set was used for imaging (#59022; Chroma Technology Corporation, Bellows Falls, Vt., USA).
The majority of cells are fully differentiated and not actively dividing, whereas some subpopulations of cells are constantly undergoing division and growth, such as the […] layer lining the intestinal tract. To determine if non-tumor cells express/internalize eHsp90, 3D cyrosectioning of mice bearing MDA-MB-468 flank tumors 6 hours post 100 injection was carried out. Probe uptake into the tumor in the live animal was first confirmed in a Licor instrument.
(§3) Whereas fluorophore-tethered probes are useful for detecting and following uptake of tumors on the skin surface in live animals, even with the most sensitive of far red or nIR detectors, due to light scattering, detection of emitted fluorescent light is limited to a depth of few mm of tissue. However, when used in conjunction with live imaging, 3D cryosectioning enables the biodistribution of fluorescent probes to the histological level throughout the body. Following sacrifice the animal was cryopreserved in liquid N2, then longitudinal cryosectioned at 40-μm slices. Each slice was imaged for fluorescence with an mCherry band filter (excitation 550-590 nm, emission 600-670 nm) as well as bright field (all slice image data can be down loaded at https://goo.gl/Z30dXJ). The images were reconstructed to create a 3D fluorescence and bright field images of the entire mouse anatomy (FIG. 4a). This process allowed for the first time a detailed examination of the complete biodistribution of 100 at the histological level in every organ. A control non-treated mouse was also imaged using an EGFP-mCherry dual band filter set. The limits of detection of 100 by fluorescence are estimated to be at <1-2 μmol. In a parallel study, an MS analysis was conducted on specific fluorescent tissues to confirm the presence of 100 parent ion (m/z=660.0 [M+2]2+).

[5] = MS analysis of tissues and urine for 100 parent ion after injection; format: in vivo, mouse
Source text: as §3

Cc1nn(-c2ccc(C(N)=O)c(NCCCOCCOCCOCCOCCOCCCNC(=O)c3ccc(C4=C(/C=C/C5=[N+](CCCCS(=O)(=O)[O-])c6ccccc6C5(C)C)CCC/C4=C\C=C4\N(CCCCS(=O)(=O)O)c5ccccc5C4(C)C)cc3)c2)c2c1C(=O)CC(C)(C)C2 [Compound 106, 4-(2-((E)-2-((E)-4′-((19-((2-carbamoyl-5-(3,6,6-trimethyl-4-oxo-4,5,6,7-tetrahydro-1H-indazol-1-yl)phenyl)amino)-4,7,10,13,16-pentaoxanonadecyl)carbamoyl)-6-(2-((E)-3,3-dimethyl-1-(4-sulfobutyl)indolin-2-ylidene)ethylidene)-3,4,5,6-tetrahydro-[1,1′-biphenyl]-2-yl)vinyl)-3,3-dimethyl-3H-indol-1-ium-1-yl)butane-1-sulfonate]
Abs. Max [1]: 766 | Em. Max [1]: 795

Cc1nn(-c2ccc(C(N)=O)c(NCCCOCCOCCOCCOCCOCCCNCc3ccc(C4=C(/C=C/C5=[N+](CCCCS(=O)(=O)[O-])c6ccccc6C5(C)C)CCC/C4=C\C=C4\N(CCCCS(=O)(=O)O)c5ccccc5C4(C)C)cc3)c2)c2c1C(=O)CC(C)(C)C2 [Compound 105, 4-(2-((E)-2-((E)-4′-(21-((2-carbamoyl-5-(3,6,6-trimethyl-4-oxo-4,5,6,7-tetrahydro-1H-indazol-1-yl)phenyl)amino)-6,9,12,15,18-pentaoxa-2-azahenicosyl)-6-(2-((E)-3,3-dimethyl-1-(4-sulfobutyl)indolin-2-ylidene)ethylidene)-3,4,5,6-tetrahydro-[1,1′-biphenyl]-2-yl)vinyl)-3,3-dimethyl-3H-indol-1-ium-1-yl)butane-1-sulfonate]
Abs. Max [1]: 766 | Em. Max [1]: 796

CC(C)NCCCn1c(Sc2cc3c(cc2I)OCO3)nc2c(N)ncnc21 [PUH71]
competition of binding of probe 100 to eHsp90 ([2]; MDA-MB-468 cells, 100 at 25 μM, 45 min, 1 μM HS-10 or 10 μM PUH71): competed | blocking of binding of 100 and HS-27 to eHsp90 [2]: blocked

Cc1nn(-c2ccc(C(N)=O)c(NCCCOCCOCCOCCOCCOCCCNCc3ccc(C4=C(/C=C/C5=[N+](CCCCS(=O)(=O)[O-])c6ccc7ccccc7c6C5(C)C)CCC/C4=C\C=C4\N(CCCCS(=O)(=O)O)c5ccc6ccccc6c5C4(C)C)cc3)c2)c2c1C(=O)CC(C)(C)C2 [Compound 111]
Abs. Max [1]: 803 | Em. Max [1]: 828

Cc1nn(-c2ccc(C(N)=O)c(NCCCOCCOCCOCCOCCOCCCNCc3ccc(C4=C(/C=C/C5=[N+](CCCCS(=O)(=O)[O-])c6ccc(S(=O)(=O)O)cc6C5(C)C)CCC/C4=C\C=C4\N(CCCCS(=O)(=O)O)c5ccc(S(=O)(=O)O)cc5C4(C)C)cc3)c2)c2c1C(=O)CC(C)(C)C2 [Compound 108, 4-(2-((E)-2-((E)-4′-(21-((2-carbamoyl-5-(3,6,6-trimethyl-4-oxo-4,5,6,7-tetrahydro-1H-indazol-1-yl)phenyl)amino)-6,9,12,15,18-pentaoxa-2-azahenicosyl)-6-(2-((E)-3,3-dimethyl-5-sulfo-1-(4-sulfobutyl)indolin-2-ylidene)ethylidene)-3,4,5,6-tetrahydro-[1,1′-biphenyl]-2-yl)vinyl)-3,3-dimethyl-5-sulfo-3H-indol-1-ium-1-yl)butane-1-sulfonate]
Abs. Max [1]: 775 | Em. Max [1]: 802

Cc1nn(-c2ccc(C(N)=O)c(NCCCOCCOCCOCCOCCOCCCNC(=O)c3ccc(C4=C(/C=C/C5=[N+](CCCCS(=O)(=O)[O-])c6ccc7ccccc7c6C5(C)C)CCC/C4=C\C=C4\N(CCCCS(=O)(=O)O)c5ccc6ccccc6c5C4(C)C)cc3)c2)c2c1C(=O)CC(C)(C)C2 [Compound 112]
Abs. Max [1]: 803 | Em. Max [1]: 829

Cc1nn(-c2ccc(C(N)=O)c(NCCCOCCOCCOCCOCCOCCCNCc3ccc(C(=C\C=C4\N(CCCCS(=O)(=O)O)c5ccccc5C4(C)C)/C=C/C4=[N+](CCCCS(=O)(=O)[O-])c5ccccc5C4(C)C)cc3)c2)c2c1C(=O)CC(C)(C)C2 [Compound 100, 4-(2-((1E,3Z)-3-(4-(21-((2-carbamoyl-5-(3,6,6-trimethyl-4-oxo-4,5,6,7-tetrahydro-1H-indazol-1-yl)phenyl)amino)-6,9,12,15,18-pentaoxa-2-azahenicosyl)phenyl)-5-((Z)-3,3-dimethyl-1-(4-sulfobutyl)indolin-2-ylidene)penta-1,3-dien-1-yl)-3,3-dimethyl-3H-indol-1-ium-1-yl)butane-1-sulfonate]
cell permeability [3]: not cell permeable | clearance from vasculature ([4]; 6 hour time point): cleared from the entire vasculature by the 6 hour time point | probe related fluorescence in major organs (heart, lungs, liver, kidney, spleen, brain, skeletal muscle, stomach, skin, thyroid, prostate, fur) ([4]; 6 hour time point): completely devoid of 100 related fluorescence | probe in gut wall or endothelial lining of upper intestine ([4]; 6 hours post injection, 25 nmol tail vein): no evidence of 100 in the gut wall or endothelial lining | uptake in skeletal structures, bone marrow, spinal and synovial fluid ([4]; 6 hours, confirmed by MS analysis): No uptake | uptake into lymph nodes ([4]; SCID mouse, 6 hours): uptake of 100 into the lymph nodes | MS detection of parent ion in intestines ([5]; 6 hr post-drug injection): did not show the presence of the parent 100 ion | concentration of intact parent molecule in tumor ([5]; MS analysis of flank tumor): ~325 nM (w.w.) | concentration at 6 h ([5]; SCID, mouse, other: injection, MS analysis of urine, 6 hours): ~50 nM | MS detection of parent ion in eyes ([5]; mouse, in vivo): did not show evidence of the 100 parent ion | route of elimination ([5]; mouse, in vivo): primarily eliminated intact through the kidney

CC(C)c1cc(-c2n[nH]c(=O)n2-c2ccc3c(ccn3C)c2)c(O)cc1O [Ganetespib]
blocking of binding of 100 and HS-27 to eHsp90 [2]: blocked

Cc1nn(-c2ccc(C(N)=O)c(NCCCOCCOCCOCCOCCOCCCNC(=O)c3ccc(C(=C\C=C4\N(CCCCS(=O)(=O)O)c5ccccc5C4(C)C)/C=C/C4=[N+](CCCCS(=O)(=O)[O-])c5ccccc5C4(C)C)cc3)c2)c2c1C(=O)CC(C)(C)C2 [Compound 102, 4-(2-((1E,3Z)-3-(4-((19-((2-carbamoyl-5-(3,6,6-trimethyl-4-oxo-4,5,6,7-tetrahydro-1H-indazol-1-yl)phenyl)amino)-4,7,10,13,16-pentaoxanonadecyl)-carbamoyl)phenyl)-5-((E)-3,3-dimethyl-1-(4-sulfobutyl)indolin-2-ylidene)penta-1,3-dien-1-yl)-3,3-dimethyl-3H-indol-1-ium-1-yl)butane-1-sulfonate]
Abs. Max [1]: 643 | Em. Max [1]: 670

CC1(C)CC(=O)c2c(C(F)(F)F)nn(-c3ccc(C(N)=O)c(N[C@H]4CC[C@H](O)CC4)c3)c2C1 [SNX2112]
blocking of binding of 100 and HS-27 to eHsp90 [2]: blocked

From patent publication US11261187B2, “Compounds and methods for targeting HSP90” (Duke University, priority 2016, dated 2022)
